Test results from patent US20190255073A1, “ESTERS OF 3-POLYAMINE DERIVATIVES OF BILE ACIDS FOR THE TREATMENT OF INFECTIONS” (VIRBAC, priority 2016, published 2019).
≈ marks a conversion by molar mass, not a printed value.

What was measured:
S. aureus ATCC25923 = test: MIC determination by microplate dilution, S. aureus human strain; type: cell-based, Staphylococcus aureus; conditions: Staphylococcus aureus, ATCC25923, Gram-positive, Mueller-Hinton medium, 24 h, 37° C.
Experimental: (§1) 1) Preparation of the Preculture
(§2) A negative control (2 mL of sterile culture medium)
(§3) A positive control (1940 μL of culture medium+40 μL of DMSO+20 μL of bacterial suspension) from a thawed biological strain (the biological strains are stored at −80° C. in glycerol).
(§4) The tubes were incubated at 37° C. for 24 hours at 100 rpm.
(§5) The microorganisms were handled under a type L2 laboratory fume cupboard and, before any handling, a UV cycle was programmed and only sterile material was used. […] The chemical compounds to be tested were prepared in a DMSO/methanol mixture (50/50) at a concentration of 5 mg/mL.
(§6) 2) Preparation of the Microplate for the Determination of the Minimum Inhibitory Concentration (MIC)
(§7) After 24 hours of incubation, a measurement of the optical density was taken using a spectrophotometer at 600 nm, collecting 100 μL of the bacterial suspension diluted in 900 μL of the sterile culture medium. This test required the use of a 96-well plate and the required volume of the microbial suspension to be seeded was calculated for an OD corresponding to a value equal to 0.01 in each well. In this plate, the first line corresponded to the negative control (195 μL of sterile culture medium in each well), the second line to the positive control (seeded culture medium supplemented with 2% of DMSO), the third line was loaded twice with bacterial suspension, 8 μL of test product were placed in each well. Thereafter, a 0.5 cascade dilution was performed from this line.
(§8) The first column served as inhibition control. A sterile filter was then placed on the microplate, allowing the passage of gases but not of contaminants. The microplate was incubated at 37° C. under a humid atmosphere for 24 hours.
(§9) NB: The medium used is Mueller-Hinton (MH) medium for bacteria. All the tests were performed in duplicate.
(§10) 4) Reading of the Results
(§11) After incubation, the filter was replaced with a transparent film, and an OD reading was then taken in an iEMS plate spectrophotometer at 620 nm. Calculation of the minimum inhibitory concentration (MIC) was performed.

S. aureus (340) = test: MIC determination by microplate dilution, S. aureus animal strain; type: cell-based, Staphylococcus aureus; conditions: Staphylococcus aureus, Gram-positive, Mueller-Hinton medium, 24 h, 37° C.
Experimental: as §1, §2, §3, §4, §5, §6, §7, §8, §9, §10, §11

S. intermedius (1051997) = test: MIC determination by microplate dilution, S. intermedius animal strain; type: cell-based, Staphylococcus intermedius; conditions: Staphylococcus intermedius, Gram-positive, Mueller-Hinton medium, 24 h, 37° C.
Experimental: as §1, §2, §3, §4, §5, §6, §7, §8, §9, §10, §11

E. faecalis ATCC29212 = test: MIC determination by microplate dilution, E. faecalis human strain; type: cell-based, Enterococcus faecalis; conditions: Enterococcus faecalis, ATCC29212, Gram-positive, Mueller-Hinton medium, 24 h, 37° C.
Experimental: as §1, §2, §3, §4, §5, §6, §7, §8, §9, §10, §11

E. coli ATCC28922 = test: MIC determination by microplate dilution, E. coli human strain; type: cell-based, Escherichia coli; conditions: Escherichia coli, ATCC28922, Gram-negative, Mueller-Hinton medium, 24 h, 37° C.
Experimental: as §1, §2, §3, §4, §5, §6, §7, §8, §9, §10, §11

E. coli (1956) = test: MIC determination by microplate dilution, E. coli animal strain; type: cell-based, Escherichia coli; conditions: Escherichia coli, Gram-negative, Mueller-Hinton medium, 24 h, 37° C.
Experimental: as §1, §2, §3, §4, §5, §6, §7, §8, §9, §10, §11

P. aeruginosa ATCC27853 = test: MIC determination by microplate dilution, P. aeruginosa human strain; type: cell-based, Pseudomonas aeruginosa; conditions: Pseudomonas aeruginosa, ATCC27853, Gram-negative, Mueller-Hinton medium, 24 h, 37° C.
Experimental: as §1, §2, §3, §4, §5, §6, §7, §8, §9, §10, §11

P. aeruginosa (1051575) [1] = test: MIC determination by microplate dilution, P. aeruginosa animal strain; type: cell-based, Pseudomonas aeruginosa; conditions: Pseudomonas aeruginosa, Gram-negative, Mueller-Hinton medium, 24 h, 37° C.
Experimental: as §1, §2, §3, §4, §5, §6, §7, §8, §9, §10, §11

CHO-K1 cells = test: WST1 cytotoxicity test on CHO-K1 cells; type: cell-based, Chinese hamster; conditions: Cricetulus griseus, CHO-K1, 24 h, read-out: IC50 (μg/mL) CHO
Experimental: Test WST1 was used to measure the cytotoxic activity of the products. This is a colorimetric test which makes it possible to measure the viability and the degree of cell proliferation. It is based on cleavage of the colorless tetrazolium salts WST-1 (4-[3-(4-iodophenyl)-2-(4-nitrophenyl)-2H-5-tetrazolio]-1,3-benzene disulfonate) with mitochondrial dehydrogenases to the yellow-colored formazan derivative, which may be quantified by spectrophotometry at 420-480 nm.
The WST1 test was performed on Chinese hamster ovary cells. The CHO-K1 cells (ATCC, USA) are kept in culture on McCoy's 5A medium supplemented with 10% fetal calf serum, 2 mM of L-glutamine and a mixture of penicillin-streptomycin (100 U/ml: 10 μg/mL). The culture is incubated at 37° C. under an atmosphere enriched in CO2 (5%), and subcultured every two days.
The cells are transferred into 96-well plates (25 000 cells/mL) in whole McCoy's 5A medium, and maintained for 24 hours at 37° C. under a humid atmosphere enriched in CO2 (5%). Increasing concentrations of test products are added to the wells in double tests and 8 growth controls containing the cells in the medium alone are included in each series of tests. After 24 hours at 37° C. (5% CO2), the culture medium is removed, the cells are rinsed in phosphate buffer (PBS) and 50 μL of PBS containing 10% of reagent WST1 are added to each well. After 20 minutes of incubation at 37° C., the results are read by spectrophotometry at 450 nm.
The results are expressed in dose-response relationships, modeled by nonlinear regression analysis using the TableCurve software. The 50% inhibitory concentration (IC50) represents the concentration of product that is capable of reducing the cell viability by 50%.

P. aeruginosa (1051575) [2] = test: Potentiation of the doxycycline activity at 2 μg/mL; type: cell-based, Pseudomonas aeruginosa; conditions: in combination with doxycycline 2 μg/mL; 24 h, 37°

SMILES | MIC (S. aureus ATCC25923) [µg/mL] | MIC (S. aureus (340)) [µg/mL] | MIC (S. intermedius (1051997)) [µg/mL] | MIC (E. faecalis ATCC29212) [µg/mL] | MIC (E. coli ATCC28922) [µg/mL] | MIC (E. coli (1956)) [µg/mL] | MIC (P. aeruginosa ATCC27853) [µg/mL] | MIC (P. aeruginosa (1051575) [1]) [µg/mL] | IC50 (CHO-K1 cells) [µg/mL] | MIC - P. aeruginosa (1051575): content of compound of formula (I) to restore the doxycycline activity (at 2 μg/mL) (P. aeruginosa (1051575) [2]) [µg/mL]
COC(=O)CC[C@@H](C)[C@H]1CCC2C3C(CC[C@@]21C)[C@@]1(C)CC[C@H](NCCNCCNCCNCCNCCN)CC1C[C@@H]3O (stereo partly drawn) [(50), methyl 3β-(pentaethylenehexamine)ursodeoxycholate] | 30 (≈ 48.3 µM) | 30 (≈ 48.3 µM) | 8 (≈ 12.9 µM) | 60 (≈ 96.6 µM) | 60 (≈ 96.6 µM) | 60 (≈ 96.6 µM) | 60 (≈ 96.6 µM) | 60 (≈ 96.6 µM) | 45 (≈ 72.5 µM) | 16
CC(C)OC(=O)CC[C@@H](C)[C@H]1CCC2C3CCC4C[C@@H](NCCCNCCCN)CC[C@]4(C)C3C[C@H](O)[C@@]21C (stereo partly drawn) [Compound (2), isopropyl 3β-norspermidinodeoxycholate] | 3 (≈ 5.48 µM) | 3 (≈ 5.48 µM) | 3 (≈ 5.48 µM) | 14 (≈ 25.6 µM) | 14 (≈ 25.6 µM) | 28 (≈ 51.1 µM) | 14 (≈ 25.6 µM) | 14 (≈ 25.6 µM) | 60 (≈ 110 µM) | 3
COC(=O)CC[C@@H](C)[C@H]1CCC2C3C(CC[C@@]21C)[C@@]1(C)CC[C@H](NCCCNCCCNCCCN)CC1C[C@@H]3O (stereo partly drawn) [Compound (12), methyl 3β-norsperminoursodeoxycholate] | 7 (≈ 12.1 µM) | 4 (≈ 6.93 µM) | 1 (≈ 1.73 µM) | 30 (≈ 52 µM) | 4 (≈ 6.93 µM) | 60 (≈ 104 µM) | 30 (≈ 52 µM) | 7 (≈ 12.1 µM) | 20 (≈ 34.7 µM) | 2
CC(C)OC(=O)CC[C@@H](C)[C@H]1CCC2C3C(C[C@H](O)[C@@]21C)[C@@]1(C)CC[C@H](NCCCNCCCNCCCN)CC1C[C@H]3O (stereo partly drawn) [Compound (6), isopropyl 3β-norsperminocholate] | 8 (≈ 12.9 µM) | 8 (≈ 12.9 µM) | 16 (≈ 25.8 µM) | > 60 | 30 (≈ 48.3 µM) | 30 (≈ 48.3 µM) | 30 (≈ 48.3 µM) | 30 (≈ 48.3 µM) | 90 (≈ 145 µM) | 4
COC(=O)CC[C@@H](C)[C@H]1CCC2C3CCC4C[C@@H](NCCCNCCCN)CC[C@]4(C)C3C[C@H](O)[C@@]21C (stereo partly drawn) [(4), methyl 3β-norspermidinodeoxycholate] | 2 (≈ 3.85 µM) | 3 (≈ 5.77 µM) | 1 (≈ 1.92 µM) | 3 (≈ 5.77 µM) | 3 (≈ 5.77 µM) |  | 3 (≈ 5.77 µM) | 3 (≈ 5.77 µM) | 20 (≈ 38.5 µM) | 3
CC(C)OC(=O)CC[C@@H](C)[C@H]1CCC2C3C(CC[C@@]21C)[C@@]1(C)CC[C@H](NCCNCCNCCNCCNCCN)CC1C[C@H]3O (stereo partly drawn) [(23), isopropyl 3β-(pentaethylenehexamine)chenodeoxycholate] | 16 (≈ 24.7 µM) | 16 (≈ 24.7 µM) | 8 (≈ 12.3 µM) | 16 (≈ 24.7 µM) | 16 (≈ 24.7 µM) | 32 (≈ 49.3 µM) | 64 (≈ 98.6 µM) | 64 (≈ 98.6 µM) |  | 8
CC(C)OC(=O)CC[C@@H](C)[C@H]1CCC2C3C(C[C@H](O)[C@@]21C)[C@@]1(C)CC[C@H](NCCCNCCCN)CC1C[C@H]3O (stereo partly drawn) [(7), isopropyl 3β-norspermidinocholate] | 28 (≈ 49.7 µM) |  | 28 (≈ 49.7 µM) | 28 (≈ 49.7 µM) | 28 (≈ 49.7 µM) | > 50 | 30 (≈ 53.2 µM) | 30 (≈ 53.2 µM) | 110 (≈ 195 µM) | 4
CC(C)OC(=O)CC[C@@H](C)[C@H]1CCC2C3CCC4C[C@@H](NCCCN(C)CCCN)CC[C@]4(C)C3C[C@H](O)[C@@]21C (stereo partly drawn) [(30), isopropyl 3β-(bis(3-aminopropyl)methylamine)deoxycholate] | 28 (≈ 49.8 µM) | 28 (≈ 49.8 µM) | 14 (≈ 24.9 µM) | 56 (≈ 99.7 µM) | 28 (≈ 49.8 µM) | 56 (≈ 99.7 µM) | 56 (≈ 99.7 µM) | 56 (≈ 99.7 µM) |  | 7
